PubChem BioAssay (NCI)
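A five-concentration, 48-hour dose response in 96-well plates underlies each endpoint, interpolated linearly between surrounding concentrations. TGI is the concentration that stops growth completely.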

Columns and labels:
Test in all cases: NCI tumour cell line growth inhibition, 48 h
ACHN renal = system: ACHN renal
SF-295 CNS = system: SF-295 CNS
SK-OV-3 ovarian = system: SK-OV-3 ovarian
NCI-H522 lung = system: NCI-H522 lung
SK-MEL-28 melanoma = system: SK-MEL-28 melanoma
EKVX NSCLC = system: EKVX NSCLC
MDA-N = system: MDA-N
MALME-3M melanoma = system: MALME-3M melanoma
HL-60(TB) leukemia = system: HL-60(TB) leukemia
HCC-2998 colon = system: HCC-2998 colon

SMILES	TGI (ACHN renal)	TGI (SF-295 CNS)	TGI (SK-OV-3 ovarian)	TGI (NCI-H522 lung)	TGI (SK-MEL-28 melanoma)	TGI (EKVX NSCLC)	TGI (MDA-N)	TGI (MALME-3M melanoma)	TGI (HL-60(TB) leukemia)	TGI (HCC-2998 colon)
NC1CCCCC1NCCNC1CCCCC1N (stereo not given)	> 100 µM	> 100 µM	> 100 µM	> 100 µM	> 100 µM	> 100 µM	> 100 µM	> 100 µM	> 100 µM	81.7 µM
C=C(Br)C[N+]12CN3CN(CN(C3)C1)C2	> 100 µM	> 100 µM	> 100 µM	> 100 µM	> 100 µM	> 100 µM	> 100 µM	> 100 µM	> 100 µM	> 100 µM
c1cc2cc3c4c5c(cc6ccc7cc8cc9c%10c8c8c7c6c5c8c5c%10c(c1C9N1CCOCCOCCOCCOCCOCC1)c2c45)C3 (stereo not given)	> 100 µM	> 100 µM	> 100 µM	> 100 µM	> 100 µM	> 100 µM	> 100 µM	> 100 µM	> 100 µM	> 100 µM
CC(C)(C)c1cc(OCc2nnc3sc(Cc4ccccc4)nn23)c(Cl)cc1OCc1nnc2sc(Cc3ccccc3)nn12	68 µM	> 100 µM	> 100 µM	> 100 µM	> 100 µM	> 100 µM	> 100 µM	> 100 µM	58.3 µM	20.9 µM
COC(=O)c1c2c(cc3c1CC1(Cc4cc5c(c(C)c4C1)CCC5)C3)CCC2 (stereo not given)	> 100 µM	> 100 µM	> 100 µM	> 100 µM	> 100 µM	> 100 µM	> 100 µM	> 100 µM	> 100 µM	> 100 µM
O=C1C=CC2(O[C@H](C3CCCCC3)[C@@H](C3CCCCC3)O2)C(SC(=O)c2ccccc2)C1 (stereo not given in full)	6.43 µM	14.5 µM	33.5 µM	2.23 µM	3.15 µM	12.7 µM	7.2 µM	10.5 µM	7.37 µM	5.52 µM
Oc1ccc(Cl)cc1-c1cc(-c2ccccc2)nc(=S)[nH]1	> 100 µM	> 100 µM	> 100 µM	> 100 µM	> 100 µM	> 100 µM	> 100 µM	> 100 µM	> 100 µM	> 100 µM
C=CC(C)(C)/C=C/c1ccc(O)cc1	> 100 µM	> 100 µM	> 100 µM	> 100 µM	> 100 µM	> 100 µM	> 100 µM	> 100 µM	> 100 µM	79.9 µM
CC(=O)/C=C/c1ccccc1	> 100 µM	> 100 µM	> 100 µM	32.6 µM	> 100 µM	> 100 µM	91.9 µM	> 100 µM	> 100 µM	> 100 µM
COC(=O)[C@@H](NS(=O)(=O)CC12CCC(CC1)C2(C)C)C(C)(C)C	> 100 µM	> 100 µM	> 100 µM	> 100 µM	> 100 µM	> 100 µM	> 100 µM	> 100 µM	> 100 µM	> 100 µM
Cc1cc2nc3ccccc3n2c2ccccc12	> 10 µM	> 10 µM	> 10 µM	> 10 µM	> 10 µM	> 10 µM	> 10 µM	> 10 µM	> 10 µM	> 10 µM
COc1cc(S(=O)(=O)Nc2ccc(-c3csc(N4C(=O)C(Cl)C4c4ccccc4O)n3)cc2)ccc1Cl (stereo not given)	> 100 µM	> 100 µM	> 100 µM	3.48 µM	> 100 µM	> 100 µM	> 100 µM	> 100 µM	49.7 µM	38.5 µM
CCOc1ccc2nc3nc(=O)[nH]c(C)c3c(NC(C)(CO)CO)c2c1	> 100 µM	> 100 µM	> 100 µM	> 100 µM	> 100 µM	> 100 µM	> 100 µM	> 100 µM	> 100 µM	> 100 µM
Clc1ccc(-c2nn3c(COc4cccc(OCc5nnc6sc(-c7ccc(Cl)cc7)nn56)c4)nnc3s2)cc1	68.4 µM	> 100 µM	> 100 µM	55.3 µM	35.9 µM	56.8 µM	36.4 µM	50.4 µM	53.6 µM	96.2 µM
